Columns and labels:
barnyardgrass = assay: Test A preemergence; format: in vivo, Echinochloa crus-galli; settings: preemergence
Method in brief: (§1)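 After sowing in a sand–loam mix, pots received compound preemergence by directed soil spray, or postemergence once plants reached the one- to two-leaf stage (2–10 cm). Formulation contained surfactant in a non-phytotoxic solvent. Injury was scored visually after ~10 greenhouse days, 0–100 scale.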

pigweed [1] = assay: Test A preemergence; format: in vivo, Amaranthus retroflexus; settings: preemergence
Method in brief: as §1

pigweed [2] = assay: Test A postemergence; format: in vivo, Amaranthus retroflexus
Method in brief: as §1

blackgrass = assay: Test C preemergence; format: in vivo, Alopecurus myosuroides
Method in brief: (§2)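 Greenhouse pot test: preemergence application onto freshly seeded loam/sand mix, postemergence application onto seedlings (1–4 leaves, 2–18 cm) in peat-vermiculite substrate. Responses scored visually 13 to 15 days later relative to controls, where 0 means no effect and 100 means complete control; a dash indicates no result.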

wheat = assay: Test C preemergence; format: in vivo, Triticum aestivum
Method in brief: as §2

foxtail, giant = assay: Test C preemergence; format: in vivo, Setaria faberii
Method in brief: as §2

johnsongrass [3] = assay: Test C preemergence; format: in vivo, Sorghum halepense
Method in brief: as §2

ragweed = assay: Test C preemergence; format: in vivo, Ambrosia elation
Method in brief: as §2

soybean = assay: Test C preemergence; format: in vivo, Glycine max
Method in brief: as §2

oilseed rape = assay: Test C preemergence; format: in vivo, Brassica napus
Method in brief: as §2

corn = assay: Test C postemergence; format: in vivo, Zea mays; settings: for Plant response rating (scale of 0 to 100 where 0 is no effect and 100 is complete control), Corn: Postemergence, 31 g ai/ha, visually evaluated after 13 to 15 days; for Corn plant response rating / Plant response rating, Corn: postemergence; for Corn plant response rating: 62 g ai/ha, scale 0 to 100
Method in brief: as §2

johnsongrass [4] = assay: Test C postemergence; format: in vivo, Sorghum halepense; settings: for Plant response rating (scale of 0 to 100 where 0 is no effect and 100 is complete control), Johnsongrass: Postemergence, 31 g ai/ha, visually evaluated after 13 to 15 days; for Johnsongrass plant response rating / Plant response rating, Johnsongrass: postemergence; for Johnsongrass plant response rating: 62 g ai/ha, scale 0 to 100
Method in brief: as §2

lambsquarters = assay: Test C postemergence; format: in vivo, Chenopodium album; settings: for Plant response rating (scale of 0 to 100 where 0 is no effect and 100 is complete control), Lambsquarters: Postemergence, 31 g ai/ha, visually evaluated after 13 to 15 days; for Lambsquarters plant response rating / Plant response rating, Lambsquarters: postemergence; for Lambsquarters plant response rating: 62 g ai/ha, scale 0 to 100
Method in brief: as §2

waterhemp = assay: Test C postemergence; format: in vivo, Amaranthus rudis; settings: for Plant response rating (scale of 0 to 100 where 0 is no effect and 100 is complete control), Waterhemp: Postemergence, 31 g ai/ha, visually evaluated after 13 to 15 days; for Waterhemp plant response rating / Plant response rating, Waterhemp: postemergence; for Waterhemp plant response rating: 62 g ai/ha, scale 0 to 100
Method in brief: as §2

[5] = 125 g ai/ha, visual injury, 0 to 100 scale, approx. 10 days
[6] = 500 g ai/ha, visual injury after approx. 10 days, 0 to 100 scale (0 no effect, 100 complete control)
[7] = Postemergence, 500 g ai/ha, 0 to 100 scale (0 no effect, 100 complete control)
[8] = postemergence, 125 g ai/ha, about 10 days, visual rating on 0 to 100 scale (0 no effect, 100 complete control)
[9] = preemergence, 31 g ai/ha, visual rating, scale 0 to 100 (0 no effect, 100 complete control), 13 to 15 days
[10] = preemergence, 62 g ai/ha, scale 0 to 100 (0 no effect, 100 complete control), 13 to 15 days
[11] = preemergence, 125 g ai/ha, scale 0 to 100, 0 is no effect, 100 is complete control
[12] = 250 g ai/ha, scale 0 to 100 (0 no effect, 100 complete control)
[13] = 125 g ai/ha, scale 0 to 100, 0 no effect, 100 complete control
[14] = preemergence, 125 g ai/ha, 13 to 15 days, scale 0 to 100, 0 = no effect, 100 = complete control
[15] = preemergence, 250 g ai/ha, scale 0 to 100, 0 is no effect, 100 is complete control

CCc1cc(C(=O)NOC(C)C)nn1Cc1ccnc(OC(F)F)c1 [Compound 126]
20: Plant response rating, Johnsongrass (johnsongrass [4]; [13])
100: Barnyardgrass plant response rating (barnyardgrass; [6]) | Pigweed plant response rating (pigweed [1]; [5]) | Pigweed plant response rating (pigweed [1]; [6]) | Plant response rating (scale of 0 to 100), Foxtail, Giant (foxtail, giant; Preemergence, 250 g ai/ha) | Ragweed plant response rating (ragweed; [10]) | Ragweed plant response rating (ragweed; [11]) | Plant response rating (scale of 0 to 100), Oilseed Rape (oilseed rape; Preemergence, 250 g ai/ha) | Oilseed Rape plant response rating (oilseed rape; [10]) | Oilseed Rape plant response rating (oilseed rape; [11])
95: Johnsongrass plant response rating (johnsongrass [3]; [11])
55: Blackgrass plant response rating (blackgrass; [9]) | Plant response rating, Corn (corn; [12])
45: Wheat plant response rating (wheat; [9]) | Foxtail, Giant plant response rating (foxtail, giant; [9])
80: Wheat plant response rating (wheat; [10]) | Plant response rating, Lambsquarters (lambsquarters; [13])
98: Foxtail, Giant plant response rating (foxtail, giant; [11]) | Plant response rating (scale of 0 to 100), Johnsongrass (johnsongrass [3]; Preemergence, 250 g ai/ha) | Plant response rating (scale of 0 to 100), Soybean (soybean; Preemergence, 250 g ai/ha)
70: Ragweed plant response rating (ragweed; [9]) | Lambsquarters plant response rating (lambsquarters) | Plant response rating, Waterhemp (waterhemp; [13])
50: Waterhemp plant response rating (waterhemp)
90: Barnyardgrass plant response rating (barnyardgrass; [5]) | Pigweed plant response rating (pigweed [2]; [7]) | Pigweed plant response rating (pigweed [2]; [8]) | Plant response rating (scale of 0 to 100), Blackgrass (blackgrass; Preemergence, 250 g ai/ha) | Blackgrass plant response rating (blackgrass; [11]) | Plant response rating (scale of 0 to 100), Wheat (wheat; Preemergence, 250 g ai/ha) | Wheat plant response rating (wheat; [11]) | Plant response rating (scale of 0 to 100), Ragweed (ragweed; Preemergence, 250 g ai/ha) | Plant response rating, Lambsquarters (lambsquarters; [12]) | Plant response rating, Waterhemp (waterhemp; [12])
10: Corn plant response rating (corn) | Johnsongrass plant response rating (johnsongrass [4])
60: Blackgrass plant response rating (blackgrass; [10])
40: Johnsongrass plant response rating (johnsongrass [3]; [9]) | Soybean plant response rating (soybean; [10]) | Plant response rating (scale of 0 to 100 where 0 is no effect and 100 is complete control), Waterhemp (waterhemp)
5: Plant response rating (scale of 0 to 100 where 0 is no effect and 100 is complete control), Corn (corn) | Plant response rating (scale of 0 to 100 where 0 is no effect and 100 is complete control), Johnsongrass (johnsongrass [4])
75: Soybean plant response rating (soybean; [11])
35: Plant response rating, Corn (corn; [13]) | Plant response rating (scale of 0 to 100 where 0 is no effect and 100 is complete control), Lambsquarters (lambsquarters)
25: Soybean plant response rating (soybean; [9]) | Plant response rating, Johnsongrass (johnsongrass [4]; [12])
85: Foxtail, Giant plant response rating (foxtail, giant; [10]) | Johnsongrass plant response rating (johnsongrass [3]; [10]) | Oilseed Rape plant response rating (oilseed rape; [9])

CCCNC(=O)c1cc(OCC)n(Cc2ccnc(OC(F)F)c2)n1 [Compound 136]
70: Waterhemp plant response rating (waterhemp)
65: Wheat plant response rating (wheat; [10])
25: Plant response rating, Corn (corn; [12])
90: Blackgrass plant response rating (blackgrass; [10]) | Plant response rating, Blackgrass (blackgrass; [14]) | Blackgrass plant response rating (blackgrass; [15]) | Plant response rating, Waterhemp (waterhemp; [12])
85: Blackgrass plant response rating (blackgrass; [9]) | Johnsongrass plant response rating (johnsongrass [3]; [10]) | Lambsquarters plant response rating (lambsquarters)
5: Plant response rating (scale of 0 to 100 where 0 is no effect and 100 is complete control), Johnsongrass (johnsongrass [4]) | Johnsongrass plant response rating (johnsongrass [4]) | Plant response rating, Johnsongrass (johnsongrass [4]; [13])
75: Ragweed plant response rating (ragweed; [10]) | Plant response rating, Ragweed (ragweed; [14]) | Soybean plant response rating (soybean; [10]) | Plant response rating, Waterhemp (waterhemp; [13])
100: Barnyardgrass plant response rating (barnyardgrass; [5]) | Barnyardgrass plant response rating (barnyardgrass; [6]) | Pigweed plant response rating (pigweed [1]; [5]) | Pigweed plant response rating (pigweed [1]; [6]) | Pigweed plant response rating (pigweed [2]; [7]) | Foxtail, Giant plant response rating (foxtail, giant; [9]) | Foxtail, Giant plant response rating (foxtail, giant; [10]) | Plant response rating, Foxtail, Giant (foxtail, giant; [14]) | Foxtail, Giant plant response rating (foxtail, giant; [15]) | Johnsongrass plant response rating (johnsongrass [3]; [15]) | Soybean plant response rating (soybean; [15]) | Oilseed Rape plant response rating (oilseed rape; [9]) | Oilseed Rape plant response rating (oilseed rape; [10]) | Plant response rating, Oilseed Rape (oilseed rape; [14]) | Oilseed Rape plant response rating (oilseed rape; [15])
45: Ragweed plant response rating (ragweed; [9]) | Soybean plant response rating (soybean; [9])
60: Johnsongrass plant response rating (johnsongrass [3]; [9]) | Plant response rating (scale of 0 to 100 where 0 is no effect and 100 is complete control), Waterhemp (waterhemp)
80: Pigweed plant response rating (pigweed [2]; [8]) | Plant response rating (scale of 0 to 100 where 0 is no effect and 100 is complete control), Lambsquarters (lambsquarters)
95: Plant response rating, Wheat (wheat; [14]) | Wheat plant response rating (wheat; [15]) | Plant response rating, Soybean (soybean; [14]) | Plant response rating, Lambsquarters (lambsquarters; [12])
98: Plant response rating, Johnsongrass (johnsongrass [3]; [14]) | Ragweed plant response rating (ragweed; [15]) | Plant response rating, Lambsquarters (lambsquarters; [13])
10: Wheat plant response rating (wheat; [9]) | Plant response rating (scale of 0 to 100 where 0 is no effect and 100 is complete control), Corn (corn) | Corn plant response rating (corn) | Plant response rating, Johnsongrass (johnsongrass [4]; [12])
15: Plant response rating, Corn (corn; [13])

Reference: patent US20150105252A1, “SUBSTITUTED PYRAZOLES AS HERBICIDES” (E I DU PONT DE NEMOURS AND COMPANY, priority 2013, published 2015)
